Results on 14 compounds are retold here after patent publication US11117899B2, “[1,2,4]triazolo[1,5-c]pyrimidine derivative as A2A receptor inhibitor” (MEDSHINE DISCOVERY INC., priority 2017, dated 2021).

≈ marks a conversion by molar mass, not a printed value.

Series [1] can be described thus: Determination of kinetic solubility. The series is classed as physicochemical. The note with it: aqueous buffer, kinetic from dmso stock, 50 mM phosphate buffer pH 7.4, 24 hours, room temperature, 200 μM maximum. As to the method:
The test compounds were dissolved in DMSO to prepare 10 mmol/L stock solutions. The stock solutions were diluted with 50% ACN/50 mM phosphate buffer (pH 7.4) to prepare standard solutions (1 μM, 20 μM, […]).
490 μL of dissolution medium (50 mM phosphate buffer solution, pH 7.4) was pipetted into a 96-well plate with a single-well volume of 2 mL using a pipette (Eppendorf Research Inc.). 10 μL of the stock solution of each test compounds and QC sample (10 mmol/L DMSO stock solution) were added to the dissolution medium, respectively, and the sample plate was sealed with a sealing film. The final concentration of the test compounds and DMSO in the sample solution were 200 μM and 2%, respectively. The mixture was shaken at 600 rpm for 24 hours at room temperature. 200 μL of the sample solution was transferred into a 96-well filter plate using a pipette and filtered with suction. The filtrate and the standard solution were detected by high performance liquid chromatography (HPLC-DAD). The concentration of the test compounds in the filtrate was calculated by an external standard method, which was the kinetic solubility of the compounds.

The nature of series [2]: Pharmacokinetics in female Balb/c mice. The series is classed as in vivo. The note with it: mouse, plasma, single intravenous injection / single oral administration; for bioavailability: read-out: Bioavailability F; for AUC: read-out: Concentration integral AUC; for half-life: read-out: Half-life T1/2 (converted). As to the method:
Objective: To test the pharmacokinetics of compounds in female Balb/c mice in vivo
Balb/c mice (female, 15-30 g, 7-9 weeks old, Shanghai Lingchang)
The pharmacokinetics profile of the compounds in rodent after intravenous injection and oral administrations was tested using a standard protocol. In the assay, the candidate compound was formulated into a clear solution and administrated to the mice through a single intravenous injection, and formulated into a uniform suspension and administrated to the mice through a single oral administration. […] The whole blood samples were collected within 24 hours, centrifuged at 3000 g at 4° C. for 15 minutes, and plasma samples were obtained by separating the supernatant. 20 times volume of acetonitrile solution containing an internal standard was added to precipitate proteins. After centrifugation, the supernatant was collected, to which an equal volume of water was added, and further centrifuged to collect the supernatant. The LC-MS/MS method was used to quantitatively analyze the plasma concentration, and the pharmacokinetics parameters, such as peak concentration, peak time, clearance rate, half-life, area under the curve, and bioavailability were calculated.

Series [3] addresses T1, Human adenosine A2A receptor (Homo sapiens, UniProt P29274).
T1 construct: host or cells: CHO
Description: Human adenosine A2A receptor calcium flux assay. Type of series: cell-based. The conditions noted are these: A2A stable CHO cell strain, antagonist mode against agonist NECA at EC80, FLIPR Fluo-4. As to the method:
Human adenosine A2A receptor calcium flux assay
A2A stable cell strain was constructed by Shanghai WuXi PharmaTech, and the host cell was CHO.
Fluo-4 Direct Kit (Invitrogen, Cat. No. F10471). After the fluorescent detection reagent (specifically binding to calcium ions and causing an increase in fluorescence signal) in the kit was incubated with the cells for a suitable period of time, the compound was added to stimulate the cells to cause changes in intracellular calcium flux, thereby causing changes in the fluorescent signal, which can reflect the strength of the agonistic or inhibitory activity of the compound.
F12+10% fetal bovine serum+geneticin 300 ug/ml+blasticidin 2 ug/ml Compound dilution buffer:
Hanks Balanced Salt Buffer (Invitrogen)+20 mM HEPES, configured before each use
The test compounds were dissolved in DMSO to prepare 10 mM stock solutions. The test compounds were diluted to 0.2 mM with DMSO, and the reference compound CGS-15943 was diluted to 0.015 mM with DMSO. Next, 10 points of three-fold serial dilutions were made with ECHO. 900 nl was transferred to the compound plate (Greiner-781280), and 30 ul of compound dilution buffer was added. The final starting concentration of the test compounds was 1 uM and CGS-15943 was 0.075 uM.
Cryopreserved A2A cells were resuscitated, and then resuspended in culture medium to 1×10^6 cells/ml. The suspension was seeded into 384-well polylysine-coated cell plates (Greiner-781946) at 20 μl/well and incubated overnight in a 5% CO2 incubator at 37° C.
The cell plate prepared the day before was taken out from the incubator, and 20 ul of 2× Fluo-4 Direct™ buffer was added to each well. The plate was incubated for 50 minutes in a 5% CO2 incubator at 37° C. and allowed to stand at room temperature for 10 minutes.
Dilution of agonist NECA: 10 points of three-fold serial dilutions were made with Echo for NECA from a starting concentration of 0.15 mM. 900 nL was then transferred to the corresponding compound plate; and then 30 μl of compound dilution buffer was added to the corresponding compound plate. The final starting concentration was 750 nM.
FLIPR instrument software was run. According to the programmed procedure, 10 ul of compound dilution buffer was added to the cell plate and the fluorescence signal was read. 10 ul of the agonist reference compound at the indicated concentration was then added to the cell plate and the fluorescent signal was read. After reading, the data was exported by the “Max-Min”, “Read 90 to Maximum allowed” method in the software, and the EC80 of the A2A cell line was calculated. The agonist was prepared at a concentration of 6× EC80. A 6× EC80 concentration of a reference compound agonist of the corresponding cells was prepared with a buffer solution, and added at 30 ul/well to the corresponding compound plate for use.
FLIPR instrument software was run. According to the programmed procedure, 10 μl of the test compounds and reference compound at an indicated concentration was added to the cell plate and the fluorescence signal was read. 10 ul of the reference compound agonist at a concentration of 6× EC80 was then added to the cell plate and the fluorescent signal was read. For the agonist detection of the compounds, the data was exported by the “Max-Min”, “Read 1 to 90” method in the software. For the antagonist detection of the compound, the data was exported by the “Max-Min”, “Read 90 to Maximum allowed” method in the software. Data were analyzed by GraphPad Prism 5.0 and the IC50 values of the test compounds were calculated.
For orientation: A change in cytosolic calcium serves as a functional read-out for many receptors and channels.

T1 sequence (P29274 whole entry): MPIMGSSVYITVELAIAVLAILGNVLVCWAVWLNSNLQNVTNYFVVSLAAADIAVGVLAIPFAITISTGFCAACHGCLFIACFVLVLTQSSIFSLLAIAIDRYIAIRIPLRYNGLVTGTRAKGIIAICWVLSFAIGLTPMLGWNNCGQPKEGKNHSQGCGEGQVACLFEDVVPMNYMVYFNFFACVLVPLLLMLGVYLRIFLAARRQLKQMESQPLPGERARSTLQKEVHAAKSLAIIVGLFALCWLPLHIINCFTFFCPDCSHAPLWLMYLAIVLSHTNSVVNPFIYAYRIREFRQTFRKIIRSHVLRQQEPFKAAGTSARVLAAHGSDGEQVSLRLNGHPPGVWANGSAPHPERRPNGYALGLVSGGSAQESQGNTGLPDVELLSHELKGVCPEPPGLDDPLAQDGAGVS

As a reminder, the solubility is the concentration that dissolves in the medium under given conditions. A higher solubility goes with a readily soluble substance. As usually defined, the bioavailability is dose-corrected exposure relative to a reference, in per cent. `Cc1cc(-c2nnc(N)nc2-c2ccccc2)cc(C(F)(F)F)n1` [Compound A, reference compound] yielded a solubility at 24 h in series [1] of 29.2 µM (≈ 9.67 µg/mL). In series [2], the clearance amounted to 208 mL/min/kg, the bioavailability came out at 21.6%, the AUC came to 0.501 µM·h and the half-life is 16.8 min.
Usually IC50 stands for the point on the concentration scale where inhibition reaches its midpoint. `Cc1cc(-c2c(-c3ccccc3)nc(N)n3ncnc23)cc(C(F)(F)F)n1` [Example A-1] had a solubility at 24 h in series [1] of 185 µM (≈ 68.5 µg/mL). For the same compound, the IC50 in series [3] came to 230 pM. Besides, in series [2], the clearance is 51.2 mL/min/kg, the bioavailability came out at 41.1%, the AUC was 3.33 µM·h and the half-life is 28.2 min.
As to `Cc1cc(-c2c(-c3cccc(F)c3)nc(N)n3ncnc23)cc(C(F)(F)F)n1` [Example A-2], the 50% inhibitory concentration (IC50) in series [3] came to 380 pM. In series [2], the clearance came out at 44.9 mL/min/kg, the bioavailability was found to be 62.1%, the AUC is 5.93 µM·h and the half-life was 48 min.
For `Cc1cc(-c2c(-c3cccc(F)c3F)nc(N)n3ncnc23)cc(C(F)(F)F)n1` [Example A-3], in series [1], the solubility at 24 h came to 92.5 µM (≈ 37.6 µg/mL). For the same compound, in series [3], the IC50 came to 320 pM.
`COc1ccccc1-c1nc(N)n2ncnc2c1-c1cc(C)nc(C(F)(F)F)c1` [Example A-4] had a solubility at 24 h in series [1] of 160 µM (≈ 64.1 µg/mL). Besides, the IC50 in series [3] was determined as 1080 pM.
Compound `Cc1cc(-c2c(-c3ccccc3)nc(N)n3ncnc23)cc(C)n1` [Example B-5] came in with a solubility at 24 h in series [1] of 197 µM (≈ 62.3 µg/mL). Further, in series [3], the IC50 came to 280 pM. In addition, in series [2], the clearance was determined as 24 mL/min/kg, the bioavailability was 91%, the AUC worked out at 19.6 µM·h and the half-life is 19.8 min.
In series [1], `Nc1nc(-c2ccccc2)c(-c2cc(Cl)nc(C(F)(F)F)c2)c2ncnn12` [Example B-28] displayed a solubility at 24 h of 54.5 µM (≈ 21.3 µg/mL). In series [3], the IC50 is 1550 pM.
In the case of `Cc1cc(-c2c(-c3ccccc3)nc(N)n3ncnc23)cc(Cl)n1` [Example B-31], in series [1], the solubility at 24 h was 56 µM (≈ 18.9 µg/mL). Besides, the IC50 in series [3] stood at 280 pM. In series [2], the clearance is 44.3 mL/min/kg, the bioavailability stood at 17.4%, the AUC is 1.73 µM·h and the half-life is 15 min.
`Cc1cc(-c2c(-c3ccccc3)nc(N)n3nc(C(F)(F)F)nc23)cc(C(F)(F)F)n1` [Example C-1]: the IC50 in series [3] was found to be 1650 pM. Moreover, in series [2], the clearance was 11.7 mL/min/kg, the bioavailability is 40.5%, the AUC worked out at 13.2 µM·h and the half-life is 237 min.
For `Cc1cc(-c2c(-c3ccccc3)nc(N)n3nc(C(F)(F)F)nc23)cc(C)n1` [Example C-2] the same measures were 2970 pM, 8.76 mL/min/kg, 50.4%, 24.9 µM·h and 120 min.
The compound `Cc1cc(-c2c(-c3ccccc3)nc(N)n3nc(CO)nc23)cc(C)n1` [Example C-19] came in with a solubility at 24 h in series [1] of 194 µM (≈ 67.2 µg/mL). Moreover, the IC50 in series [3] came to 400 pM. Moreover, in series [2], the clearance was determined as 38.7 mL/min/kg, the bioavailability was 70.7%, the AUC is 8.79 µM·h and the half-life was 55.2 min.
On to `Cc1cc(-c2c(-c3ccccc3)nc(N)n3nc(CO)nc23)cc(C(F)(F)F)n1` [Example C-33], for which, in series [1], the solubility at 24 h is more than 200 µM. Further, the half-maximal inhibitory concentration (IC50) in series [3] is 650 pM. Further, in series [2], the clearance was 18 mL/min/kg, the bioavailability amounted to 95.2%, the AUC turned out to be 22 µM·h and the half-life is 72 min.
As for `Cc1cc(-c2c(-c3ccc(F)cc3)nc(N)n3nc(C(F)(F)F)nc23)cc(Cl)n1` [Example C-41], the IC50 in series [3] amounted to 4990 pM. In series [2], the clearance stood at 5.53 mL/min/kg, the bioavailability was 41.2%, the AUC worked out at 25.1 µM·h and the half-life is 482 min.
On to `Cc1cc(-c2c(-c3ccc(F)cc3)nc(N)n3nc(C(F)(F)F)nc23)cc(C)n1` [Example C-57], for which, in series [3], the IC50 is 4490 pM. In series [2], the clearance was determined as 3.94 mL/min/kg, the bioavailability is 69.3%, the AUC is 71.7 µM·h and the half-life is 192 min.
